Measurements published in ChEMBL document CHEMBL1135518 (J Med Chem, 2002).

Columns and labels:
[1] = target: T1, Adrenergic receptor alpha-2 (Rattus norvegicus, UniProt P22086+P19328+P22909); assay: The binding affinity at the Alpha-2 adrenergic receptor determined using [3H]RX-821002; format: protein assay
T1 sequence (P22086 whole entry): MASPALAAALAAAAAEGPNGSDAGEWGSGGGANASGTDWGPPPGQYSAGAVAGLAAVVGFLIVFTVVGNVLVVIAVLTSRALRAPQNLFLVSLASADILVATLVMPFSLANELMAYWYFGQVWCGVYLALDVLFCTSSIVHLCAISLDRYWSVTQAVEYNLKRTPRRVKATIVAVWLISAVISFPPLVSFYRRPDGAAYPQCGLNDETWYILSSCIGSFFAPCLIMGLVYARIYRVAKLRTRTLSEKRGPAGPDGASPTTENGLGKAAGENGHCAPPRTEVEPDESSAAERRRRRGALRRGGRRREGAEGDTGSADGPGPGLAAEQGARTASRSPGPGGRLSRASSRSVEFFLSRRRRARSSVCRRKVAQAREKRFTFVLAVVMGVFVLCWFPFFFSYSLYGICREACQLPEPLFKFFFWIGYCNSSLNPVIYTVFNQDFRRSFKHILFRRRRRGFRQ
T1 sequence (P19328 whole entry): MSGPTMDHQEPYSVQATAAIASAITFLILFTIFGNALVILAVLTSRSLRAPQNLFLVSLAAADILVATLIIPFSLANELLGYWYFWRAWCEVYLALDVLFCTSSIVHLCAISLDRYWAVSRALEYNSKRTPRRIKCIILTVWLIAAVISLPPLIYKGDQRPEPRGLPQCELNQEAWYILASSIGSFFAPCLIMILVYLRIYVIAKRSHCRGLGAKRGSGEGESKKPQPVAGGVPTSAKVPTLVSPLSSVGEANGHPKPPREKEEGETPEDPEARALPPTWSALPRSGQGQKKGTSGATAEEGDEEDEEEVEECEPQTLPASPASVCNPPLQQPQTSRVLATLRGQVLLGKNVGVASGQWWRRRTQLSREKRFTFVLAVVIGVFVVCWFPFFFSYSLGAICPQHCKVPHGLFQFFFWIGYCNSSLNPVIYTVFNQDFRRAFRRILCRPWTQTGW
T1 sequence (P22909 whole entry): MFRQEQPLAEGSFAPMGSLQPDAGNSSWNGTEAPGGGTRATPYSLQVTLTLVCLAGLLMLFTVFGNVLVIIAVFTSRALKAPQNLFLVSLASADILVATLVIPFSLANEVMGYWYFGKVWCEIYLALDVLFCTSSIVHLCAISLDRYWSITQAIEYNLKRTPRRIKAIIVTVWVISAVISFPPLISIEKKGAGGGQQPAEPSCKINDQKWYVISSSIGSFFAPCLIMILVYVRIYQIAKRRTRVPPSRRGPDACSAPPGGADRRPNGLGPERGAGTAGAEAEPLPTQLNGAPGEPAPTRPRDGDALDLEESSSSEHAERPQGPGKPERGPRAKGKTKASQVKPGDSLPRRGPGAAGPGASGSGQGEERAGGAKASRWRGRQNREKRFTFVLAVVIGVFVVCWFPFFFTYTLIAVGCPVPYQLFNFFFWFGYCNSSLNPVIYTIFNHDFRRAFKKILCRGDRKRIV

[2] = The binding affinity at the Histamine H1 receptor determined using [3H]pyrilamine; parameters: species or system Cavia porcellus
Rattus norvegicus [3] = assay: The increase in the extracellular levels of 5-HT in the rat ventral hippocampus at a dose of 2.5 mg/kg sc measured by in vivo microdialysis; format: functional; conditions: route subcutaneous
Rattus norvegicus [4] = assay: The increase in the extracellular levels of DOPAC in the rat ventral hippocampus at a dose of 2.5 mg/kg sc measured by in vivo microdialysis; format: functional; conditions: route subcutaneous
Rattus norvegicus [5] = assay: The increase in the extracellular levels of NA in the rat ventral hippocampus at a dose of 2.5 mg/kg sc measured by in vivo microdialysis; format: functional; conditions: route subcutaneous
Rattus norvegicus [6] = assay: The increase in the extracellular levels of NA in the rat ventral hippocampus at a dose of 5.0 mg/kg sc measured by in vivo microdialysis; format: functional; conditions: route subcutaneous
Rattus norvegicus [7] = assay: The increase in the extracellular levels of 5-HT in the rat ventral hippocampus at a dose of 5.0 mg/kg sc measured by in vivo microdialysis; format: functional; conditions: route subcutaneous
Rattus norvegicus [8] = assay: The increase in the extracellular levels of DOPAC in the rat ventral hippocampus at a dose of 5.0 mg/kg sc measured by in vivo microdialysis; format: functional; conditions: route subcutaneous

SMILES	Ki [1] [nM]	Ki [2] [nM]	Increase (Rattus norvegicus [3]) [%]	Increase (Rattus norvegicus [4]) [%]	Increase (Rattus norvegicus [5]) [%]	Increase (Rattus norvegicus [6]) [%]	Increase (Rattus norvegicus [7]) [%]	Increase (Rattus norvegicus [8]) [%]
COc1cccc2c1N1CCN(C)C[C@@H]1c1ccccc1C2	73	13	200	130	200			
COc1cccc2c1N1CCN(C)C[C@H]1c1ccccc1C2	37	14	200	160		200		
COc1cccc2c1N1CCN(C)CC1c1ccccc1C2 (racemic)						200	200	160
